Results published in patent US11472845B2, “Antitumor peptide and use thereof” (TOAGOSEI CO., LTD., priority 2019, dated 2022).
Like-named read-outs stand apart in the source and are kept apart here. Ends that are not written are not given here.

Tests used:
[1] = tested on: human gastric cancer cell lines (FU97); type: cell-based; conditions: for Cell viability (%) of test cells: human, 48 h
Protocol: (§1) The antitumor activity of Sample 1 synthesized in the above Test Example 1 with respect to human-derived cultured tumor cells was evaluated. Currently commercially available human gastric cancer cell lines (FU97), human alveolar basal epithelial adenocarcinoma cell lines (A549), human breast cancer cell lines (MDA-MB-231), and human melanoma cell lines (A375) were prepared as test tumor cells. In addition, normal human mammary epithelial cell culture lines (MCF-12F) were prepared for comparison. A DMEM culture medium including 10 μg/mL of insulin, 50 unit/mL of penicillin, 50 μg/mL of streptomycin, and 10% fetal bovine serum (FBS) (product, commercially available from Wako Pure Chemical Industries, Ltd.) The above five types of cell lines were cultured in respective designated culture solutions. The cell lines were cultured so that the number of cells per well in a 96-hole (well) plate was about 5×10^3. Here, an amount of the culture solution per well was 100 μL. The 96-well plate was then placed in a CO2 incubator. Then, pre-incubation was performed under conditions of 37° C. and 5% CO2 for about 1 day (about 23 hours). Then, regarding the culture solution for the peptide addition area, culture solutions containing Sample 1 for each concentration were prepared so that the concentration of Sample 1 was 6.25 μM, 12.5 μM or 25 μM and supplied to wells (that is, wells after the pre-incubation) in which 90 μL of cells to be evaluated were cultured in each well. On the other hand, regarding the culture solution for the comparative test area, a culture solution to which no Sample 1 was added was prepared, and supplied to wells (that is, wells after the pre-incubation) in which 90 μL of cells to be evaluated were cultured in each well. The 96-well plate was then placed in a CO2 incubator, and incubated under conditions of 37° C. and 5% CO2 for 48 hours. […] Then, the absorbance at a wavelength of 450 nm (value corrected by the absorbance at a wavelength of 620 nm: A450-A620) was measured based on the reduction of the tetrazolium salt in the culture solution. Then, the cell viability was calculated according to a colorimetric method. In the test areas (test areas 1 to 3) in the peptide addition area, the cell viability of each of the above five types of cell lines was calculated as a relative value when a measured value (measurement absorbance) of the comparative test area in the same cell lines was set as 100%. That is, regarding each of the above five types of cell lines, the cell viability (%) was calculated by dividing the measurement absorbance of the test areas (test areas 1 to 3) in the peptide addition area by the measurement absorbance of the comparative test area in the same cell lines and multiplying by 100.

[2] = tested on: human alveolar basal epithelial adenocarcinoma cell lines (A549); type: cell-based; conditions: for Cell viability (%) of test cells: human, 48 h
Protocol: as §1, with “comparison. An RPMI-1640” for “comparison. A DMEM”, “including 2 mM of L-glutamine, 1 mM of sodium pyruvate,” for “including”, “10 mM” for “10 μg/mL”, “of HEPES, […] of glucose,” for “of insulin,”, “10% FBS” for “10% fetal bovine serum (FBS)”, “Industries, Ltd.).” for “Industries, Ltd.)”

MACLGFQRHKAQLNLATRTWPCTLLFFLLFIPVFCKKRTLRKTDRKKR-NH2 (cysteines drawn unpaired) [Sample 1]
Specific cell viability of test tumor cells ([1]; FU97, 12.5 μM Sample 1, (cell viability of test tumor cells)/(cell viability of MCF-12F cells)×100): 23.0 | Cell viability (%) of test cells ([1]; 6.25 μM): 29.4% | Cell viability (%) of test cells ([1]; 12.5 μM): 26.3% | Cell viability (%) of test cells ([1]; 25 μM): 30% | Specific cell viability of test tumor cells ([2]; A549, 12.5 μM Sample 1, (cell viability of test tumor cells)/(cell viability of MCF-12F cells)×100): 36.0 | Cell viability (%) of test cells ([2]; 6.25 μM): 64.7% | Cell viability (%) of test cells ([2]; 12.5 μM): 41.1% | Cell viability (%) of test cells ([2]; 25 μM): 24.9%
